Measured values: patent publication US20040038933A1, “Pharmaceutical compositions, dose and method for treating malaria” (priority 2000, published 2004)

Legend:
P. falcipanini = assay: Recovery from fever in patients with severe malaria, combined administration of CRDS and artesunate; type: in vivo; details: CRDS 4 mg/kg i.v. infusion every 8 hours for 4 days, artesunate i.v. 120 mg then 60 mg every 12 hours up to 600 mg, 22 patients per group, FIG. 1
Procedure: Sodium curdlan sulfate (hereinafter referred to as “CRDS”; molecular weight 80,000; sulfur content 14.5%) was used as a sulfated polysaccharide and artesunate (dihydroartemisinin hemisuccinate, see formula I, J. Med. Chem., 30, 2147 (1987)) was used as an artemisinin compound.
(§1) CRDS was used as a solution containing 100 mg of CRDS, 50 mg of mannitol, 18 mg of dibasic sodium phosphate and phosphate buffer (pH 6.5) per vial.
(§2) CRDS was intravenously administered (infusion) at 4 mg/kg every 8 hours in a total daily dose of 12 mg/kg for 4 days.
(§3) Physiological saline was used as a placebo and administered according to the same schedule as for CRDS.
Artesunate (60 mg/vial) was intravenously administered to both CRDS and placebo groups at a dose of initially 120 mg, and then 60 mg every 12 hours up to a total dose of 600 mg (according to the current standard therapy in the Bangkok Hospital for Tropical Diseases). If possible, tablets containing 50 mg of artesunate were orally administered.
Fifty patients were randomly divided into a CRDS group and a placebo group. The patients were males and females at the ages of 12-65 in whom P. falcipanini was found. The patients had symptoms of severe malaria (with hypoglycemia corrected) and excluded those having symptoms of cerebral malaria. […]
The time required for each patient to recover from fever after starting the treatment was recorded. […]

[1] = tested on: asexual malarial parasites; assay: Recovery from coma in patients with severe/cerebral malaria, combined administration of CRDS and artesunate; type: in vivo; details: male patients in a coma, Glasgow Coma Score, CRDS 4 mg/kg i.v. infusion every 8 hours for 4 days, artesunate i.v. up to 600 mg, 13 patients per group, FIG. 2
Procedure: CRDS (molecular weight 80,000; sulfur content 14.5%) was used as a sulfated polysaccharide and artesunate was used as an artemisinin compound.
as §1, §2, §3
Artesunate (60 mg/vial) was intravenously administered to both CRDS and placebo groups at a dose of initially 120 mg, and then 60 mg every 12 hours up to a total dose of 600 mg. If possible, tablets containing 50 mg of artesunate were orally administered.
Coma was determined by Glasgow Coma Score.
For each of the CRDS group and the placebo group, 13 patients completed this protocol. The time required for each patient to recover from coma was recorded. Fisher's exact test was used to compare the number of patients who recovered from coma within 120 hours between both groups (CRDS group and placebo group).

With `C[C@H]1[C@H](OC(=O)CCC(=O)O)O[C@@H]2O[C@@]3(C)CC[C@H]4[C@H](C)CC[C@@H]1[C@@]24OO3` [artesunate, dihydroartemisinin hemisuccinate] the “time required for all the patients to recover from fever” value (P. falcipanini) was 9 days and the “time required for all the patients to recover from coma” value [1] was 9 days.
